Assay results from patent US8110365B2, “Compositions and methods for detecting and treating renal injury and inflammation” (Rhode Island Hospital, priority 2006, dated 2012).
Entries after “also recorded” stand apart in the source; their conditions may differ. Read-outs that look alike come from different tables or passages of the source.

Legend:
[1] = tested on: b-catenin; assay: b-catenin accumulation in HKC; format: cell-based, human
[2] = tested on: HKC cells; assay: Cell viability of HKC cells (Trypan blue exclusion); format: cell-based, human; details: TNF-a (2 ng/ml) treated HKC cells at 24 h
Description: (§1) Human proximal TEC (HKC-8) (courtesy of Dr. L. Racusen of John Hopkins University, Baltimore, Md.) were maintained in Dulbecco's modified Eagle's medium (DMEM)/F12 supplemented with 5% fetal bovine serum (FBS). Cells were plated at approximately 70% confluence in the media containing 5% FBS for 24 h and then underwent serum starvation for another 24 h. Human recombinant HGF and human recombinant TNF-α (R&D systems, Minneapolis, Minn.) were added to the culture with fresh serum-free medium at a final concentration of 20 ng/ml and 2 ng/ml respectively, or otherwise as indicated. Cell viability was assessed by Trypan blue exclusion. At different time points, cells and conditioned media were harvested for further investigation.

[3] = biological target: GSK3b (Homo sapiens, UniProt P49841); assay: Inhibitory phosphorylation of GSK3b in HKC cells (immunoblot); format: cell-based; parameters: endogenous in cells; host or cells: HKC-8
Chain of GSK3b (P49841 whole entry): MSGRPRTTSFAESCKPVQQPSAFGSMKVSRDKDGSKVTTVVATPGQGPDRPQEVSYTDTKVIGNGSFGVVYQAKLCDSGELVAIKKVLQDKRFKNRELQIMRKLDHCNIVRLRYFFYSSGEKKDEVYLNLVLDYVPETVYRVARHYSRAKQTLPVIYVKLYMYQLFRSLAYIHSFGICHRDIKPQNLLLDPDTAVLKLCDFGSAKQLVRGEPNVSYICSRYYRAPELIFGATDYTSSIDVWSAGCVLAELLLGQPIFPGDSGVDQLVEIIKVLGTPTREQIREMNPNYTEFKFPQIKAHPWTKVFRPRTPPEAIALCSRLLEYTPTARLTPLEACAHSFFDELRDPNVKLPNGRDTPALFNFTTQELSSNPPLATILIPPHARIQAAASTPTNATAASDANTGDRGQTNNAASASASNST
Description: as §1
(§2) After different treatments, HKC cells were washed with PBS and lysed with RIPA buffer supplemented with protease inhibitors [1% Nonidet P-40, 0.1% SDS, 100 ug/ml phenylmethysulfonyl fluoride (PMSF), 0.5% sodium deoxycholate, ImM sodium orthovanadate, 2 ug/ml aprotin, 2 ug/ml leupeptin, 5mM EDTA in PBS]. Protein concentration was determined by using a bicinchoninic acid protein assay kit (Sigma). All samples with equal amounts of total protein (50 ug/ml) were fractionated by 7.5˜15% SDS-polyacrylamide gels under reducing condition and analyzed by western immunoblot as described previously (30). The antibodies against p-GSK3b, p-NFkB p65, p-IkBa were purchased from Cell Signaling Technology (Beverly, Mass.) and those for GSK3b, hemagglutin were from Santa Cruz Biotechnology (Santa Cruz, Calif.).

[4] = tested on: rats with unilateral urethral obstruction(UUO); assay: Rats with unilateral urethral obstruction (UUO); format: in vivo, rat; details: for renal inflammation (ED-1 macrophage infiltration): VPA 200 mg/kg/d ip, 5 days
[5] = tested on: NFkB target genes; assay: Real time RT-PCR of NFkB target genes in TNF-a stimulated HKC cells; format: cell-based, human; details: HKC cells, 12 h
Description: Total RNA was extracted from approximately 1×10^6 cultured HKC cells using TRIzol solution (Invitrogen, Carlsbad, Calif.) according to the instructions specified by the manufacturer. RNA was then diluted to 3μg/μl in RNase free distilled water. The first strand cDNA was prepared using 3 μg RNA, Superscript RT reverse transcriptase (Invitrogen) and oligo (dT) primer according to the manufacture's instruction. Quantitative real time PCR was carried out on a Stratagene Mx4000® multiplex quantitative PCR system (Stratagene, La Jolla, Calif.) using primers specific for human MCP-1, RANTES, IkBa, Bcl-2 and GAPDH. All reactions were performed in triplicate with Brilliant® SYBR® Green QPCR Master Mix (Stratagene). Fluorescence values of SYBR Green I dye, representing the amount of product amplified at that point in the reaction, were recorded in real time at both the annealing step and the extension step of each cycle. The Ct value, defined as the point at which the fluorescence signal was statistically significant above background, was calculated for each amplicon in each experimental sample using Stratagene Mx4000 software. This value was then used to determine the relative amount of amplification in each sample by interpolating from the standard curve. Transcript level of each specific gene was normalized to GAPDH amplification.

[6] = tested on: NFkB p65; assay: TNF-a induced NFkB p65 phosphorylation in HKC cells (immunoblot); format: cell-based, human; details: HKC cells; for TNF-a induced p65 phosphorylation at S468: TNF-a 2 ng/ml, VPA 1 mM, 10 uM for 60 minutes
Description: as §1, §2

[7] = biological target: T1, GSK3b and NFkB p65 (Homo sapiens, UniProt P49841); assay: Co-immunoprecipitation of GSK3b and NFkB p65 in HKC cells; format: cell-based; details: HKC cells
T1 construct: whole cell lysates were subjected to immunoprecipitation by anti-GSK3b or anti-p65 antibody; endogenous in cells; host or cells: HKC-8
T1 sequence (P49841 whole entry): as above
Description: Immunoprecipitation was carried out by using an established method as described previously. Briefly, cells were washed with ice cold PBS and then lysed with RIPA buffer. After preclearing with normal IgG, cell lysates with equal amount of total protein (0.5 mg of protein) were incubated overnight at 4° C. with 4 μg specific agarose-conjugated antibodies. The precipitated complexes were collected, washed, and separated on SDS-polyacrylamide gels and blotted with various antibodies as indicated.

[8] = kidney homogenates, immunoblot, listed as VPA

| inhibitory phosphorylation of GSK3b (S9) [3] | TNF-a induced co-precipitation of phosphorylated p65 (Ser468) with GSK3b ([7]; immunoprecipitation by anti-GSK3b) | TNF-a induced GSK3b to p65 interaction ([7]; immunoprecipitation by anti-p65) | inhibitory phosphorylation of GSK3b (S9) ([3]; listed as Sodium valproate) | SMILES | b-catenin accumulation [1] | cell viability / TNF-a induced apoptosis [2] | renal inflammation (ED-1 macrophage infiltration) [4] | renal inflammation (ED-1 macrophage infiltration) ([4]; listed as VPA) | renal total GSK3b expression ([4]; kidney homogenates, immunoblot) | renal inhibitory phosphorylation of GSK3b [4, 8] | renal total GSK3b expression [4, 8] | TNF-a induced mRNA expression of IkBa and Bcl-2 [5] | TNF-a induced mRNA expression of MCP-1 and RANTES [5] | TNF-a induced p65 phosphorylation at other sites (S276, S536) [6] | TNF-a induced p65 phosphorylation at S468 [6] | TNF-a induced p65 phosphorylation at S468 ([6]; listed as VPA) | inhibitory phosphorylation of GSK3b (S9) ([3]; listed as Valproic acid) |
| --- | --- | --- | --- | --- | --- | --- | --- | --- | --- | --- | --- | --- | --- | --- | --- | --- | --- |
| induced marked GSK3b phosphorylation | – | – | – | Cn1sc(=O)n(Cc2ccccc2)c1=O [TDZD-8] | induced b-catenin (b-Cat.) accumulation | Only lithium significantly reduced cell viability | – | – | – | – | – | – | – | – | – | – | – |
| induced marked GSK3b phosphorylation | mimicking the action of VPA | reminiscent the effect of VPA | induced phosphorylation of GSK3b at Ser9 | CCCC(CCC)C(=O)O [valproate, Valproic acid, reference compound] | induced b-catenin (b-Cat.) accumulation | Only lithium significantly reduced cell viability | prevented inflammatory infiltration; also recorded: markedly ameliorates renal inflammation | diminished renal inflammation | blunted induced expression of GSK3b in the diseased kidney | much greater; also recorded: enhanced its inhibitory phosphorylation | substantially suppressed total GSK3b expression | mimicked the action of HGF on the expression of these genes | mimicked the action of HGF on the expression of these genes | minimally affected phosphorylation of p65 at other sites | suppresses TNF-a elicited p65 phosphorylation at S468 | abrogates the TNF-a induced NFkB p65 phosphorylation at Ser468 in a dose dependent manner | induces inhibitory phosphorylation of GSK3b at S9 |
